{"source": "PubChem BioAssay AID328", "about": "(DTP/NCI, 2004)", "tested_on": "BDF1 mice, P388 leukemia ip, median survival T/C", "experiment": "NCI In Vivo Anticancer Drug Screen. Data for tumor model P388 Leukemia (intraperitoneal) in B6D2F1 (BDF1) mice", "settings": "endpoint: median survival time, higher = longer survival", "in_short": "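Survival ratio, drug arm over vehicle arm, in mice with a transplanted tumour.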", "key": {"[1]": {"settings": "dose: 100.0 mg/kg/injection, schedule: Q01DX009 (ip), vehicle: Klucel (hydroxypropylcellulose) (HPC)"}, "[2]": {"settings": "dose: 100.0 mg/kg/injection, schedule: Q04DX003 (ip), vehicle: Klucel (hydroxypropylcellulose) (HPC)"}, "[3]": {"settings": "dose: 200.0 mg/kg/injection, schedule: Q01DX009 (ip), vehicle: Klucel (hydroxypropylcellulose) (HPC)"}, "[4]": {"settings": "dose: 200.0 mg/kg/injection, schedule: Q04DX003 (ip), vehicle: Klucel (hydroxypropylcellulose) (HPC)"}, "[5]": {"settings": "dose: 400.0 mg/kg/injection, schedule: Q04DX003 (ip), vehicle: Klucel (hydroxypropylcellulose) (HPC)"}}, "note": "“And” between values parts separate entries of the source, which are not always exact repeats. Equal values may be shown once. Toxic doses and inconclusive results are not listed. Residues, ends and D or L forms follow the SMILES beside them. *: point of attachment. Cbz = O=C(OCc1ccccc1)*; Bn = c1ccc(C*)cc1; βAla = NCCC(=O)O"}
{"smiles": "c1ccc(NNC(c2ccccc2)(c2ccccc2)c2ccccc2)cc1", "values": [{"measurement": "T/C", "setting": "[1]", "value": "90 % of control"}, {"measurement": "T/C", "setting": "[2]", "value": "104 % of control"}, {"measurement": "T/C", "setting": "[3]", "value": "100 % of control"}, {"measurement": "T/C", "setting": "[4]", "value": "91 % of control"}, {"measurement": "T/C", "setting": "dose: 400.0 mg/kg/injection, schedule: Q01DX009 (ip), vehicle: Klucel (hydroxypropylcellulose) (HPC)", "value": "90 % of control"}, {"measurement": "T/C", "setting": "[5]", "value": "95 % of control"}]}
{"smiles": "CCCCCCC(=O)O[C@H]1CC[C@H]2[C@@H]3CCC4=CC(=O)CC[C@]4(C)[C@H]3CC[C@]12C", "values": [{"measurement": "T/C", "setting": "dose: 25.0 mg/kg/injection, schedule: Q01DX009 (ip), vehicle: other", "value": "120 % of control"}, {"measurement": "T/C", "setting": "dose: 25.0 mg/kg/injection, schedule: Q04DX003 (ip), vehicle: other", "value": "100 % of control"}, {"measurement": "T/C", "setting": "dose: 50.0 mg/kg/injection, schedule: Q01DX009 (ip), vehicle: other", "value": "100 % of control"}, {"measurement": "T/C", "setting": "dose: 50.0 mg/kg/injection, schedule: Q04DX003 (ip), vehicle: other", "value": "100 % of control"}, {"measurement": "T/C", "setting": "dose: 66.0 mg/kg/injection, schedule: Q01DX009 (ip), vehicle: other", "value": "100 % of control"}, {"measurement": "T/C", "setting": "dose: 100.0 mg/kg/injection, schedule: Q01DX009 (ip), vehicle: other", "value": "100 % of control"}, {"measurement": "T/C", "setting": "dose: 100.0 mg/kg/injection, schedule: Q04DX003 (ip), vehicle: other", "value": "100 % of control"}, {"measurement": "T/C", "setting": "dose: 150.0 mg/kg/injection, schedule: Q01DX009 (ip), vehicle: other", "value": "90 % of control"}]}
{"smiles": "[Cl][Co][Cl].[NH-]CC[NH-].[NH-]CC[NH-]", "values": [{"measurement": "T/C", "setting": "dose: 25.0 mg/kg/injection, schedule: Q04DX002 (ip), vehicle: saline", "value": "100 % of control"}, {"measurement": "T/C", "setting": "dose: 50.0 mg/kg/injection, schedule: Q04DX002 (ip), vehicle: saline", "value": "109 % of control"}, {"measurement": "T/C", "setting": "dose: 100.0 mg/kg/injection, schedule: Q04DX002 (ip), vehicle: saline", "value": "104 % of control and 111 % of control"}]}
{"smiles": "COC(=O)C(CSCc1ccccc1)NC(=O)C(CSCc1ccccc1)NC(=O)CCNC(=O)OCc1ccccc1", "note": "(configuration not stated) ({Cbz-βAla}-Cys(Bn)-Cys(Bn)-OMe; configuration not given here)", "values": [{"measurement": "T/C", "setting": "dose: 25.0 mg/kg/injection, schedule: Q04DX003 (ip), vehicle: Klucel (hydroxypropylcellulose) (HPC)", "value": "102 % of control"}, {"measurement": "T/C", "setting": "dose: 50.0 mg/kg/injection, schedule: Q04DX003 (ip), vehicle: Klucel (hydroxypropylcellulose) (HPC)", "value": "100 % of control"}, {"measurement": "T/C", "setting": "[2]", "value": "95 % of control"}, {"measurement": "T/C", "setting": "[4]", "value": "93 % of control"}, {"measurement": "T/C", "setting": "[5]", "value": "93 % of control"}]}
{"smiles": "CCCCCCCCOP(=O)(N1CC1C)N1CC1C", "note": "(configuration not stated)", "values": [{"measurement": "T/C", "setting": "dose: 100.0 mg/kg/injection, schedule: Q04DX003 (ip), vehicle: saline", "value": "154 % of control"}]}
{"smiles": "O=c1nc(Oc2ccccc2)nc2ccc(Cl)nn12", "values": [{"measurement": "T/C", "setting": "dose: 50.0 mg/kg/injection, schedule: Q01DX009 (ip), vehicle: saline with Tween-80", "value": "105 % of control"}, {"measurement": "T/C", "setting": "dose: 100.0 mg/kg/injection, schedule: Q01DX009 (ip), vehicle: saline with Tween-80", "value": "116 % of control"}]}
{"smiles": "C=CCN(CC=C)C(=O)CCN1CC1", "values": [{"measurement": "T/C", "setting": "dose: 1.25 mg/kg/injection, schedule: Q01DX009 (ip), vehicle: saline", "value": "95 % of control"}, {"measurement": "T/C", "setting": "dose: 2.5 mg/kg/injection, schedule: Q01DX009 (ip), vehicle: saline", "value": "100 % of control"}, {"measurement": "T/C", "setting": "dose: 5.0 mg/kg/injection, schedule: Q01DX009 (ip), vehicle: saline", "value": "112 % of control"}]}
{"smiles": "O/C(=C/C(=S)S)c1cccs1", "values": [{"measurement": "T/C", "setting": "dose: 0.1 mg/kg/injection, schedule: Q04DX003 (ip), vehicle: water", "value": "88 % of control"}, {"measurement": "T/C", "setting": "dose: 0.2 mg/kg/injection, schedule: Q04DX003 (ip), vehicle: water", "value": "97 % of control"}, {"measurement": "T/C", "setting": "dose: 0.39 mg/kg/injection, schedule: Q01DX009 (ip), vehicle: water", "value": "101 % of control"}, {"measurement": "T/C", "setting": "dose: 0.4 mg/kg/injection, schedule: Q04DX003 (ip), vehicle: water", "value": "95 % of control"}, {"measurement": "T/C", "setting": "dose: 0.78 mg/kg/injection, schedule: Q01DX009 (ip), vehicle: water", "value": "97 % of control"}, {"measurement": "T/C", "setting": "dose: 0.8 mg/kg/injection, schedule: Q04DX003 (ip), vehicle: water", "value": "89 % of control"}, {"measurement": "T/C", "setting": "dose: 1.56 mg/kg/injection, schedule: Q01DX009 (ip), vehicle: water", "value": "92 % of control"}, {"measurement": "T/C", "setting": "dose: 3.12 mg/kg/injection, schedule: Q01DX009 (ip), vehicle: water", "value": "100 % of control"}, {"measurement": "T/C", "setting": "dose: 6.25 mg/kg/injection, schedule: Q01DX009 (ip), vehicle: water", "value": "102 % of control"}, {"measurement": "T/C", "setting": "dose: 6.25 mg/kg/injection, schedule: Q04DX003 (ip), vehicle: water", "value": "111 % of control"}, {"measurement": "T/C", "setting": "dose: 12.5 mg/kg/injection, schedule: Q01DX009 (ip), vehicle: water", "value": "94 % of control"}]}
{"smiles": "CC12C(=O)C(C)(C(c3ccccc3)=C1c1ccccc1)C1(c3ccccc3)C(c3ccccc3)C21c1ccccc1", "note": "(configuration not stated)", "values": [{"measurement": "T/C", "setting": "dose: 50.0 mg/kg/injection, schedule: Q01DX009 (ip), vehicle: Klucel (hydroxypropylcellulose) (HPC)", "value": "100 % of control"}, {"measurement": "T/C", "setting": "[1]", "value": "100 % of control"}, {"measurement": "T/C", "setting": "[3]", "value": "104 % of control"}]}
